From US20240261315A1 (Omikron Italia S.r.l., priority 2021, published 2024) come the findings set out here.

One assay relates to db/db mice. Put plainly: SD-OCT measurement of retinal layer thickness in db/db mice. The note with it: 15 days oral treatment; for GC/IPL layer thickness / INL layer thickness / RNFL layer thickness: SD-OCT; for alteration in the thickness of retinal layers: vs placebo or healthy control. The assay is classed as in vivo. From the text:
(§1) The db/db mice have a mutation in the leptin receptor gene and they are an animal model of retinal neurodegeneration. Such model is useful to mime the pathophysiological events which are found in neurodegenerative pathologies such as glaucoma.
(§2) 20 db/db […] (BKS.Cg-+Leprdb/+Leprdb/OlaHsd, males, 10 weeks) were randomized in 5 groups and treated for 15 days by oral route with oral solutions based on: • 1. Citicoline 0.5% (Cit.) in 10% lactose solution administered with nasogastric tube (SNG); • 2. […] 10% lactose solution (Placebo) administered with SNG; • 5. Healthy, non-diabetic control (Control).
On day 15, 1 hour after the administration of the several treatments, the mice were subjected to (i) very high-resolution Spectral Domain Optical Coherence Tomography (SD-OCT), to obtain, in vivo, detailed images relating to the morphology of the different retinal layers. The mice were subjected to anaesthesia induced by single intraperitoneal injection of 80 mg/ml Ketamine, xylazine 12 mg/ml (Sigma-Adrich). Subsequently, to induce mydriasis, one single drop of 0.5% tropicamide was instilled and then each mouse positioned in front of the objective of OCT.
For all animals only the right eye was examined and the average obtained from three consecutive retinal scanning for each eye was considered for each layer. The OCT images were acquired through bidimensional scanning (B-scan) combined to noise reduction software with ART (automatic real time) and with a visual field of 30 degrees focalized on the head of the optic nerve. After OCT examination the animals were sacrificed by cervical dislocation and the eyes immediately enucleated.

The next assay deals with synaptophysin. Put plainly: Synaptophysin quantification by immunofluorescence in retina of db/db mice. The assay is classed as in vivo. The following applies: vs placebo and healthy control.
Text: as §1, §2
(v) The quantification of caspase-3 and of synaptophysin was performed by means of immunofluorescence. The sections were fixed in methanol (20° C.) for 1 min and washed with buffered saline solution (PBS) 0.01 M at pH 7.4. Then, the sections were incubated in 10% solution NGS, 0.1% Triton X-100, PBS for 1 hour at room environment and subsequently incubated with a specific primary antibody (respectively anti-caspase-3 and anti-synaptophysin monoclonal antibody of rabbit) one night at 4° C. […] Five fields (three corresponding to the central retina and two to the peripheral one) were analysed. The fluorescence intensity of images was quantified with software ImageJ.

The next assay has as its system retinal ganglion cells. Nature of the assay: Clinical observation: electro-functional test, PERG. The assay is classed as in vivo, human. The note with it: after 6 months of treatment, in addition to hypotensive therapy, 3 patients. The procedure:
12 randomized patients were included in 4 groups: • CIT. GROUP-3 patients treated with citicoline in oral solution 10 ml/die corresponding to 500 mg/die of citicoline, in addition to the hypotensive therapy; • NIC. […] The patients were treated and followed for 6 months. At baseline and after 6 months of treatment complete eye examination including visual acuity, control of the intraocular pressure (IOP) with Goldmann tonometry (GAT); visual field testing, electro-functional and morphological examination were performed. Then (2) electro-functional test was performed: electroretinogram from PERG pattern and of the PEV visual evoked potentials to evaluate the bioelectric responses respectively of the retinal ganglion cells and of the visual cortex evoked from the visual stimuli. The patients were positioned in an acoustically insulated semi-dark room, in front of the display surrounded by a uniform field of luminance of 5 cd/m2. […] The signal to PERG and PEV was recorded by a small electrode of Ag/AgCl positioned respectively above the lower eyelid and on the scalp. […] The peak-peak widths were measured at PERG P50-N95 for each wave. […] During a recording session, simultaneous PERG and PEV were recorded at least twice (between two and six times) and the resulting waveforms were overlapped to verify the repeatability of results. […]

The subject of assay [1] is layer of the RNFL nerve fibres. Put plainly: Clinical observation: RNFL thickness by SD-OCT. The assay is classed as in vivo, human. The following applies: after 6 months of treatment, in addition to hypotensive therapy, 3 patients. The protocol: 12 randomized patients were included in 4 groups: • CIT. GROUP-3 patients treated with citicoline in oral solution 10 ml/die corresponding to 500 mg/die of citicoline, in addition to the hypotensive therapy; • NIC. […] The patients were treated and followed for 6 months. At baseline and after 6 months of treatment complete eye examination including visual acuity, control of the intraocular pressure (IOP) with Goldmann tonometry (GAT); visual field testing, electro-functional and morphological examination were performed. (3) The evaluation of the thickness of the layer of the RNFL nerve fibres was performed with spectral-domain optical coherence tomography SD-OCT (RTVue Model-RT100 version 3.5; Optovue Inc, Fremont, CA, USA). Such analysis allows a tomographic survey of retina capable of highlighting, through high-resolution cross sections, structural details of the cellular layers and of their plexuses and allows a qualitative and quantitative analysis of the retinal alterations. The patients were positioned in front of the instrument and invited to observe a luminous target: the instrument, once the ocular structure to be analysed is focused, performs the scanning.

Turning to `NC(=O)c1cccnc1` [Nicotinamide], in the assay with db/db mice, the GC/IPL layer thickness is 58.8 ± 5.2 μm, the INL layer thickness was determined as 21.1 ± 2.1 μm, the RNFL layer thickness was determined as 21.8 ± 2.4 μm and the “alteration in the thickness of retinal layers” value is recorded as “less reduction in the thickness of the layers”. Also, the levels of synaptophysin result in the assay on synaptophysin is on record as “statistically significant increase in the levels of synaptophysin”. Besides, the “PERG P50-N95 A” value with retinal ganglion cells is on record as 1.74 (±0.21) microV. In addition, the RNFL-TO in assay [1] is on record as 61.1 (±12.5).

As for `C[N+](C)(C)CCOP(=O)([O-])OP(=O)(O)OC[C@H]1O[C@@H](n2ccc(N)nc2=O)C(O)C1O` (some centres unmarked) [Citicoline, citidin-5′-difosfocholine], in the assay on db/db mice, the GC/IPL layer thickness is on record as 59.3 ± 4.8 μm, the INL layer thickness was 20.9 ± 2.5 μm, the RNFL layer thickness is listed as 22.3 ± 1.3 μm and the “alteration in the thickness of retinal layers” value is “less reduction in the thickness of the layers”. For the same molecule, in the assay on synaptophysin, the levels of synaptophysin result is recorded as “statistically significant increase in the levels of synaptophysin”. Also, the “PERG P50-N95 A” value in the assay on retinal ganglion cells is on record as 1.77 (±0.27) microV. In assay [1], the RNFL-TO is 65.0 (±12.0).
